Like-named read-outs stand apart in the source and are kept apart here.
Columns and labels:
[1] = cited from earlier work
[2] = tested on: androgen receptor (in vivo functional activity); details: vs other antiandrogen therapies; cited from earlier work
[3] = target: T1, cytosolic androgen receptor (AR) (Rattus norvegicus, UniProt P15207); test: Saturation binding of 3H-MIB to AR in cytosol (Scatchard); parameters: species or system Sprague-Dawley rats; details: mean±S.D., n=3; 4° C., 18 hours
T1 construct: The supernatant (cytosol) containing AR protein was removed and stored; from tissue; host or cells: ventral prostate cytosol of castrated male Sprague-Dawley rats
T1 sequence (P15207 1-902): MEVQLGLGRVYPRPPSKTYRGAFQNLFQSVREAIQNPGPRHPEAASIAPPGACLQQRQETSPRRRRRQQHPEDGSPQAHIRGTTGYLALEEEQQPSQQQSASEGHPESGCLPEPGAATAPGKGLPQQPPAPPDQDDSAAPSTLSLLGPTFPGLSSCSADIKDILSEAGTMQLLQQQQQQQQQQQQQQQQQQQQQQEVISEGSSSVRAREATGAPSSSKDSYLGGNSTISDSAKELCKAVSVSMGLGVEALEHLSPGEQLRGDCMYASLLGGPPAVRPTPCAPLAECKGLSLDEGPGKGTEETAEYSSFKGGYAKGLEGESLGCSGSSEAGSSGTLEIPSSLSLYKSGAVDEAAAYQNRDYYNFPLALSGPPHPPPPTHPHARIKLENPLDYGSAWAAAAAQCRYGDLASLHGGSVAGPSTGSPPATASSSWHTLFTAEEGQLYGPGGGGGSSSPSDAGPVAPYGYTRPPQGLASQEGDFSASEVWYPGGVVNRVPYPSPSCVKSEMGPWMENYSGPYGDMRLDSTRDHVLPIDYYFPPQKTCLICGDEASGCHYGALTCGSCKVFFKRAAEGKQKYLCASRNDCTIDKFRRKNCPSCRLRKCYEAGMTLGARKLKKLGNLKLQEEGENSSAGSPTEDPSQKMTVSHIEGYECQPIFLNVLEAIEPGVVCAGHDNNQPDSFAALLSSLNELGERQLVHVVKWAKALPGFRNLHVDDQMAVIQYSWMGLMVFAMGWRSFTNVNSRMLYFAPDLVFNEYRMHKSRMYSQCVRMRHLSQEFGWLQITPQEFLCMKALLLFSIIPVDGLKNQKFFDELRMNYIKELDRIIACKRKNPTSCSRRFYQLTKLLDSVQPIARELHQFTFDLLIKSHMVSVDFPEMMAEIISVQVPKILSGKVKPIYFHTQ

AR = test: Covalent (irreversible) binding to the AR; details: studies not described
[4] = target: T1, cytosolic androgen receptor (AR); test: biochemical; format: binding, Sprague-Dawley rats
[5] = tested on: AR (plasmid pCMVhAR) in CV-1 cells; test: Transcriptional activation (AR-mediated luciferase reporter, cotransfected CV-1 cells); format: cell-based; details: for minimal effective concentration: read-out: Potency: lowest concentration of the ligand capable of maximally stimulating AR-mediated transcription
Protocol: The agonist activity of each ligand was examined using transfected CV-1 cells (American Type Culture Collection, Rockville, Md.). CV-1 cells were maintained in DMEM containing 10% FBS at 37° C. in a humidified atmosphere containing 5% carbon dioxide. DMEM without phenol red was used during transfection studies. One day before transfection, monolayer cells were removed from flasks and plated at a density of 4.5×10^5 cells/well in 6-well tissue culture plates. Cells in each well were then cotransfected with 100 ng of an AR expression vector (plasmid pCMVhAR; provided by Dr. Elizabeth Wilson at The University of North Carolina, Chapel Hill, N.C.), 2.5 μg of a luciferase reporter vector (plasmid pMMTV-Luc; provided by Dr. Ronald Evans at The Salk Institute, San Diego, Calif.), and 2.5 μg of a control β-galactosidase vector (plasmid pSV-β-galactosidase; Promega Corporation, Madison, Wis.). Transfection was performed using Lipofectamine™ according to the manufacturer's instructions (Life Technologies, Gaithersburg, Md.). Ten hours after adding the transfection reagent, cells were washed twice with DMEM containing 0.2% FBS and then returned to the incubator. After an additional 10 to 12 hours of incubation, the medium was removed and replaced with DMEM containing 0.2% FBS and various concentrations of DHT or the ligand of interest. Final ligand concentrations were 0.1, 1, 10, 50, 100, 500, and 1,000 nM. The drug-containing medium was replaced after 24 hours of incubation to minimize the possible effects of ligand degradation on measurement of transcriptional activation. Control studies in which neither DHT nor ligand were added to the medium were also performed. Cells were washed with phosphate buffered saline, pH 7.4, after 48 hours of drug treatment and harvested using 350 μL of reporter lysis buffer (Promega Corporation, Madison, Wis.). Cell lysates were transferred to a microcentrifuge tube, vortexed briefly, and centrifuged at 12,000 g for 2 minutes; An aliquot (150 μL) of supernatant was used for determination of β-galactosidase activity in each well using a spectrophotometer (Cary Model 1E, Varian Associates, Sunnyvale, Calif.) set at a wavelength of 420 nm. A separate aliquot (100 μL) was used for determination of luciferase activity assay (Luciferase Assay System, Promega Corporation, Madison, Wis.) using an automated luminometer (Model AutoLumat LB953, Wallac Inc., Gaithersburg, Md.). Viable cell numbers and transfection efficiency in each well were normalized by expressing the transcriptional activation as a ratio of the luciferase activity to β-galactosidase activity in individual wells. […] All experiments were performed in triplicate. Potency was reported as the lowest concentration of the ligand used during transfection experiments capable of producing maximal AR-mediated transcriptional activation.

sperm production in men = details: cited from earlier work
[6] = oral administration; cited from earlier work
[7] = 3H-MIB 1 nM, 4° C., 18 hours, R-isomers of C-1 to C-5, read-out: Ki (Table 1)
[8] = CV-1, 48 h, read-out: Agonist Activity (% of DHT): maximal percentage of transcriptional activation observed for each ligand
[9] = CV-1, read-out: agonist activity
[10] = healthy male volunteers, single oral dose of the racemic mixture

CC(O)(CS(=O)(=O)c1ccc(F)cc1)C(=O)Nc1ccc(C#N)c(C(F)(F)F)c1 (racemic) [Casodex]
oral absorption ([1]; after oral administration): well absorbed after oral administration
biological half-life ([1]; in man): 6 days
tolerance (in words) [2]: improved tolerance

C[C@@H]1CC2=CC(=O)CC[C@@H]2[C@H]2CC[C@@]3(C)[C@@H](CC[C@]3(C)O)[C@@H]21 [3H-MIB, (17α-methyl-^3 H)-Mibolerone]
Kd [3]: 0.19 ± 0.01 nM

C[C@](O)(CSc1ccc(NC(=O)CCl)cc1)C(=O)Nc1ccc(C#N)c(C(F)(F)F)c1 [C-1 (R)]
covalent (irreversible) binding to AR (AR): does not covalently (i.e., irreversibly) bind the AR

C[C@](O)(CBr)C(=O)Nc1ccc(C#N)c(C(F)(F)F)c1 [C-2]
Ki [4, 7]: 7.98 ± 0.86 nM
Emax [5, 8]: 18.5 ± 5.08%
minimal effective concentration ([5]; CV-1, 48 h): 0.5 µM
Emax [5, 9]: < 20%

C[C@](O)(CI)C(=O)Nc1ccc(C#N)c(C(F)(F)F)c1 [C-4]
Ki [4, 7]: 2.79 ± 1.35 nM
Emax [5, 8]: 20.5 ± 7.57%
minimal effective concentration ([5]; CV-1, 48 h): 0.5 µM
Emax [5, 9]: < 20%

C[C@](O)(CI)C(=O)Nc1ccc([N+](=O)[O-])c(C(F)(F)F)c1 [C-5]
Ki [4, 7]: 0.86 ± 0.11 nM
Emax [5, 8]: 88.6 ± 18%
minimal effective concentration ([5]; CV-1, 48 h): 0.5 µM

CC(=O)Nc1ccc(S(=O)(=O)C[C@](C)(O)C(=O)Nc2ccc(C#N)c(C(F)(F)F)c2)cc1 [C-7]
Ki [4]: 1.7 nM
RBA (%): (IC50 of DHT)/(IC50 of a ligand)*100% [4]: 15.9%

CC(=O)Nc1ccc(SC[C@](C)(O)C(=O)Nc2ccc(C#N)c(C(F)(F)F)c2)cc1 [C-8 (R)]
Ki [4]: 1 nM
RBA (%): (IC50 of DHT)/(IC50 of a ligand)*100% [4]: 26.9%

CC(=O)Nc1ccc(SC[C@@](C)(O)C(=O)Nc2ccc(C#N)c(C(F)(F)F)c2)cc1 [C-8 (S)]
Ki [4]: 141 nM
RBA (%): (IC50 of DHT)/(IC50 of a ligand)*100% [4]: 0.19%

CC(=O)N(C(C)=O)c1ccc(SC[C@](C)(O)C(=O)Nc2ccc(C#N)c(C(F)(F)F)c2)cc1 [C-9]
Ki [4]: 2.64 nM
RBA (%): (IC50 of DHT)/(IC50 of a ligand)*100% [4]: 10.2%

CCC(=O)Nc1ccc(SC[C@](C)(O)C(=O)Nc2ccc(C#N)c(C(F)(F)F)c2)cc1 [C-10]
Ki [4]: 3.81 nM
RBA (%): (IC50 of DHT)/(IC50 of a ligand)*100% [4]: 7.08%

CCC(=O)N(C(=O)CC)c1ccc(SC[C@](C)(O)C(=O)Nc2ccc(C#N)c(C(F)(F)F)c2)cc1 [C-11]
Ki [4]: > 1000 nM
RBA (%): (IC50 of DHT)/(IC50 of a ligand)*100% [4]: < 0.10%

C[C@]12CCC(=O)C[C@@H]1CC[C@@H]1[C@@H]2CC[C@]2(C)[C@@H](O)CC[C@@H]12 [DHT, dihydrotestosterone, reference compound]
Emax [5, 8]: 100%

C[C@](O)(CS(=O)(=O)c1ccc(F)cc1)C(=O)Nc1ccc(C#N)c(C(F)(F)F)c1 [R-Bicalutamide, reference compound]
AR-mediated transcriptional activation (in words) [5]: unable to stimulate AR-mediated transcriptional activation at even the highest concentrations tested
Emax [5, 8]: 8.28 ± 2.66%
Emax at 1 µM ([5]; CV-1, read-out: mean agonist activity at 1,000 nM): 8.3%
elimination half-life [1, 10]: 101 h

C[C@@](O)(CS(=O)(=O)c1ccc(F)cc1)C(=O)Nc1ccc(C#N)c(C(F)(F)F)c1 [S-Casodex]
elimination half-life (t1/2) [1, 10]: 19 h

CCCCCCC(=O)O[C@H]1CC[C@H]2[C@@H]3CCC4=CC(=O)CC[C@]4(C)[C@H]3CC[C@]12C [testosterone enanthate]
testosterone peak levels after injection (in words) (sperm production in men; immediately following intramuscular injection): supraphysiologic peak levels of testosterone
azoospermia or severe oligospermia (less than 3 million sperm per ml) and infertility, share of men (sperm production in men; weekly intramuscular injections, WHO report): 98%

C[C@]12CC[C@H]3[C@@H](CCC4=CC(=O)CC[C@@]43C)[C@@H]1CC[C@@H]2O [testosterone]
oral absorption / androgenic effect (in words) [6]: readily absorbed after oral administration, but demonstrates little androgenic effect due to rapid hepatic metabolism

Reference: US6160011A (priority 1998, dated 2000)
